The values that follow are results of earlier work, collected in US20090214682A1, “Composition and methods for weight loss in a subject” (priority 2008, published 2009).

Like-named read-outs stand apart in the source and are kept apart here.

The conditions of data set [1]: rats.
Assay in data set [2]: not given
The source holds these as a separate data set.

The conditions of data set [3]: obese women.
For data set [4] the following is noted: rats, high fat diet, 12 weeks.
For data set [5] the following is noted: vs placebo.
Assay in data set [6]: not given
The source holds these as a separate data set.

Assay in data set [7]: not given
This is another data set of the same source.

For data set [8] the following is noted: 8 weeks, overweight subjects, vs placebo.

On to `[Cr]` [Chromium], for which, under “combined with exercise”, the body fat result is “reduce body fat” and the lean mass entry was “increase lean mass”. Moreover, the HDL cholesterol entry (human, in vivo) is reported as “increase HDL”.
Turning to `O=C(O)CC(O)(C(=O)O)C(O)C(=O)O` (stereo not shown) [HCA, 1,2-dihydroxypropane-1,2,3-tricarboxylic acid], in data set [1], the appetite result is “repress appetite” and the fatty acid synthesis result is on record as “inhibit fatty acid synthesis”. In addition, the caloric intake entry in data set [2] (clinical studies) was “reduction in caloric intake”. The blood cholesterol profile entry in data set [2] (daily, moderate exercise, 8 weeks) was “improved blood cholesterol profile”. Further, the weight loss entry in data set [2] (daily, moderate exercise, 8 weeks, vs placebo) was “increased weight loss”. Also, in data set [2] (human, in vivo), the serotonin levels entry was “significantly increased”. Also, the “fat oxidation during exercise” value in data set [2] (untrained men and women) is recorded as “increasing fat oxidation”.
In the case of `Cn1c(=O)c2c(ncn2C)n(C)c1=O` [caffeine, 3,7-dihydro-1,3,7-trimethyl-1H-purine-2,6-dione], in data set [3], the weight loss entry is recorded as “Significant weight loss”. For the same molecule, in data set [4], the body fat result was “generally reduced”. Also, in data set [4] (vs control group), the “abdominal adipose tissue weight” value is reported as “significant decrease” and the serum triglyceride levels entry is on record as “significant decrease”.
On to `CCCCCCCCCCCC(C[C@@H]1OC(=O)[C@H]1CCCCCC)OC(=O)[C@H](CC(C)C)NC=O` (stereo partly drawn) [orlistat, N-formyl-L-leucine-1-[[(2S,3S)-3-hexyl-4oxo-2-oxetanyl]methyl]dodecyl ester], for which, in data set [5] (one year treatment), the LDL cholesterol levels entry was “greater improvements then placebo” and the total serum cholesterol result is “greater improvements then placebo”. In [5] (persons with type 2 diabetes), the weight loss entry was “more significant weight loss then the placebo group”. Further, the tolerability result in [6] (60 mg vs larger dose) was “generally better tolerated”. In addition, the “efficacy for weight loss relative to prescription dose” value in data set [6] (OTC 60 mg vs prescription 120 mg) was “about 85%”. For the same molecule, the “inhibition of absorption of ingested fats” value in data set [6] (OTC dose 60 mg) is recorded as “about 25%”. The “average weight loss of initial body weight” value in data set [6] (OTC dose 60 mg, over 16 weeks) is recorded as “about 5%”.
With `Cn1c(=O)c2[nH]cnc2n(C)c1=O` [theophylline, 3,7-dihydro-1,3-dimethyl-1H-purine-2,6-dione], in [4], the body fat result was “generally reduced”.
Regarding chromium polynicotinate, in [7] (vs control groups), the systolic blood pressure result is “effective in lowering systolic blood pressure”. In [7] (vs controls), the “free radical damage in liver and kidney tissue” value is “less free radical damage”. For the same molecule, the body fat result in [8] is “significant loss of body fat”.
